Test results from patent publication US10578610B2, “Peptide regulators of mitochondrial fusion and methods of use” (priority 2016, dated 2020).
Ends that are not written are not given here.

Assays:
Mfn2 T105M fl/st MEFs = test: TAT-minipeptides in MEFs expressing CMT2A mutant hMfn2 T105M; assay type: cell-based, murine; conditions: for mitochondrial fragmentation / dysmorphology / mitochondrial polarization / depolarization: Mfn2 T105M MEFs, 72 hours after adeno-Cre, 1 μM
Method: Wild-type murine embryonic fibroblast cells (MEFs) were prepared from E10.5 C57/b6 mouse embryos. SV-40 T antigen-immortalized Mfn1 null (“Mfn1 KO,” ATCC No. CRL-2992), Mfn2 null (“Mfn2 KO,” ATCC No. CRL-2993) and Mfn1/Mfn2 double null MEFs (“Mfn DKO,” ATCC No. CRL-2994) were purchased from ATCC. MEFs conditionally expressing the human Mfn2 T105M mutation were prepared from E10.5 embryos of C57BL/6-Gt(ROSA)26Sor[tm1(CAG-MFN2*T105M)Dple]/J mice purchased from The Jackson Laboratory (Stock No: 025322). MEFs were maintained in DMEM containing 4.5 g/L glucose (or galactose when specified) supplemented with 10% fetal bovine serum, 1× nonessential amino acids, 2 mM L-glutamine, 100 U/ml penicillin and 100 μg/ml streptomycin.
Models cells harboring a Cre recombinase-inducible mutant human Mfn2 containing the T105M mutation were used (FIG. 13A) because they recapitulate fusion defects caused by compound functional null Mfn2 mutants in […] CMT2A. A time course study of mitochondrial fragmentation after adeno-Cre mediated induction of Mfn2 T105M was performed and the results are shown in FIG. 13B.
It was considered that mitochondrial dysmorphology created by genetic Mfn2 dysfunction in CMT2A might be improved by TAT-367-384Gly if endogenous normal Mfn1 or Mfn2 proteins could be compelled into their active unfolded conformations, thus overcoming dominant inhibition by GTPase Mfn2 mutants. This was tested in MEFs expressing the CMT2A-causal mutant hMfn2 T105M (Calvo et al., 2009, Arch Neurol, 66:1511-1516; Detmer et al., 2008, Hum Mol Genet, 17:367-375) as a conditional flox/stop (fl/st) transgene. […] Parallel adenoviral expression of WT Mfn2 at more than twice the levels of Mfn2 T105M (5-fold vs 2-fold) provoked neither mitochondrial nor cellular toxicity (data not shown). Scale bars are 10 microns. N=3 or 4; *=P<0.05 vs. control, #=P<0.05 vs. Ad-Cre (ANOVA).

hMfn2 = molecular target: T1, hMfn2 (Homo sapiens, UniProt O95140); test: Mfn2 FRET assay in live cells; assay type: cell-based; conditions: 5 μM TAT-minipeptide, data not shown
T1 construct: expressed in transfected cells; host or cells: FMK 293T cells (so in the source), Lipofectamine-transfected, pcDNA3.1
T1 sequence (O95140 1-757): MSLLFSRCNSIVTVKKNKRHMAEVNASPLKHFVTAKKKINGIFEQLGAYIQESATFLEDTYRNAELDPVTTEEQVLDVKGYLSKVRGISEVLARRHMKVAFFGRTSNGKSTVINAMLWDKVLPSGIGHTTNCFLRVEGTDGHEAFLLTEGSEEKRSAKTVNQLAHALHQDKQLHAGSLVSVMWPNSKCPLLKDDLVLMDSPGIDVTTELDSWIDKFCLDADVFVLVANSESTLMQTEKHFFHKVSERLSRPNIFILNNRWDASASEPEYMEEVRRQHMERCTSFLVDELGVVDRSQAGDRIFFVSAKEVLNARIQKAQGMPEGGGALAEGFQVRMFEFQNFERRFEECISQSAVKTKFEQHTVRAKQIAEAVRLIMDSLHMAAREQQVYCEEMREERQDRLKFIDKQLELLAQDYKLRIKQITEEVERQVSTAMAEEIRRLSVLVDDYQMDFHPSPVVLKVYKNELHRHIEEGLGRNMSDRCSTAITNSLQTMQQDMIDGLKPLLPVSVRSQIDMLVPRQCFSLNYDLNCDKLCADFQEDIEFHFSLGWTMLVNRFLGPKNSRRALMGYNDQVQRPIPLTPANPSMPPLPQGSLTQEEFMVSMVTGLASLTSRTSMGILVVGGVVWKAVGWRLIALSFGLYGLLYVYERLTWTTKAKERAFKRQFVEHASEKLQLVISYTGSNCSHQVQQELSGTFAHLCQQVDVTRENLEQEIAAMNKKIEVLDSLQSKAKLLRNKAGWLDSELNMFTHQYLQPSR
Method: mCerulean1 and mVenus were cloned onto the 5′ and 3′ ends of hMfn2 cDNA in pcDNA3.1 and confirmed by DNA sequencing. Lipofectamine-transfected biosensor-expressing FMK 293T cells were imaged on an Olympus IX81 ZDC inverted microscope under 40× magnification. mCerulean was excited at 436 nm with emission at 480 nm. mVenus was excited at 500 nm with emission at 535 nm. FRET was imaged with excitation at 436 nm and emission at 535 nm. Studies were performed after adding GTP[…]S (1 mM, Sigma-Aldrich) to suppress Mfn2 GTPase activity. Live cell FRET data were acquired as described (Spiering et al., 2013, Methods Cell Biol, 114:593-609) every 60 seconds for 15 minutes before and 90 minutes after addition of TAT-minipeptides (5 µM).

Mfn2 KO MEFs = test: TAT-minipeptides in a cell model of Mfn2 deficiency; assay type: cell-based, murine; conditions: 1 μM or 5 μM, 24 hours, data not shown
Description: Enhancing Mfn1- or Mfn2-mediated mitochondrial fusion with TAT-367-384 Gly has potential to alleviate mitochondrial morphological abnormalities like those evoked in CMT2A caused by nonsense or damaging non-synonymous Mfn2 mutations (Bombelli et al., 2014, JAMA Neurol, 71:1036-1042). It was reasoned that mitochondrial morphology would improve if endogenous normal Mfn1 or Mfn2 were assisted into their active conformations in which the D2 region is extended and/or available for interaction with the D2 region of a second Mfn protein (e.g., FIGS. 1B and 3B). This notion was tested in Mfn2 KO MEFs, a cell model of Mfn2 deficiency. WT MEFs and Mfn2 KO MEFs were treated with 1 μM or 5 μM TAT-367-384Gly peptide or TAT-398-418Gly peptide.

Mfn1/Mfn2 DKO MEFs = test: Confocal localization of FITC-labeled TAT-minipeptides in mitofusin null cells; assay type: cell-based, murine; conditions: MEFs completely lacking mitofusins
Method: The above results support the premise that TAT-conjugated Mfn2 minipeptides affect mitochondrial fusion by modulating Mfn1 and Mfn2 conformation according to the dynamic structure model depicted in FIGS. 3A-3C. Additional studies were performed to validate this mechanism of action using the minipeptide-Mfn2 binding assay procedure. Confocal localization of FITC-labeled TAT-minipeptides in WT MEFs and Mfn null MEFs (Mfn1/Mfn2 DKO) was used for analysis of interaction between the minipeptides and mitochondrial mitofusins. Mitochondria were stained with MitoTracker Orange; nucleus was stained with Blue Hoechst. Line-scans were generated for the confocal photographs.
Thus, cell-internalized TAT-conjugated Mfn2 HR1 minipeptides bind specifically to mitochondrial mitofusins.

| Sequence | mitochondrial fragmentation / dysmorphology (Mfn2 T105M fl/st MEFs) | mitochondrial polarization / depolarization (Mfn2 T105M fl/st MEFs) | FRET of hMfn2 tagged with mCerulean1 and mVenus (hMfn2) | mitochondrial aspect ratio (Mfn2 KO MEFs) | localization of FITC-labeled TAT-peptide to mitochondria (Mfn1/Mfn2 DKO MEFs) | mitochondrial clumping (Mfn2 T105M fl/st MEFs; cells expressing Mfn2 T105M) |
| --- | --- | --- | --- | --- | --- | --- |
| QDRLKFIDKQGELLAQDYKLRGGYGRKKRRQRRR [TAT-398-418Gly] | aggravated mitochondrial dysmorphology | exacerbated mitochondrial depolarization | increased | exaggerated mitochondrial shortening | not to MEFs completely lacking mitofusins | – |
| QIAEAVRGIMDSLHMAARGGYGRKKRRQRRR [TAT-367-384Gly] | rapidly reversed mitochondrial fragmentation | improved mitochondrial polarization | had the opposite effect | normalized mitochondrial aspect ratio | not to MEFs completely lacking mitofusins | corrected mitochondrial clumping |
